Test [1] has as its target Sigma non-opioid intracellular receptor 1 (Cavia porcellus) (UniProt Q60492). Kind of test: Sigma-1 binding assay was done in guinea pig membranes by labeling the binding site with [3H](+)-pentazocine.
Test [2] has as its target Vesicular acetylcholine transporter (Torpedo). Kind of test: Binding to vesicular acetylcholine transporter of torpedo synaptic vesicles.
Test [3] is described as follows: Sigma-1 binding assay was done in guinea pig membranes by labeling the binding site with [3H](+)-pentazocine.

Consider 27 compounds from BindingDB's records for doi:10.1021/jm970326r (University of Minnesota, 1998).

The pKi is the Ki on a negative log10 scale, so that one unit is a factor of ten. A high value points to a low Ki.

SMILES strings stand for the structures. pKi: −log10 of the molar value.

Sequence of Sigma non-opioid intracellular receptor 1 (Cavia porcellus) (Q60492 whole entry, looked up): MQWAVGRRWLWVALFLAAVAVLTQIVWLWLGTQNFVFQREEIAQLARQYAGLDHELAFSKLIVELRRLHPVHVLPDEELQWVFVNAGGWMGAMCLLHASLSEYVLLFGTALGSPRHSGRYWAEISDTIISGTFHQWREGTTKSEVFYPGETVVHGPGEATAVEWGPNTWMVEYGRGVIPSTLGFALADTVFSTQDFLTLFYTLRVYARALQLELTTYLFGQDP

As to `O=C(CCCN1C2CCC1CC(c1ccccc1)C2)c1ccc(F)cc1` (stereo not given), in test [1], the pKi is 7.47.

On to `OC(CN1C2CCC1CC(c1ccccc1)C2)c1ccc(Br)cc1` (stereo not given) [1-(4-Bromo-phenyl)-2-(3-phenyl-8-aza-bicyclo[3.2.1]oct-8-yl)-ethanol], for which the pKi is 6.84 in test [2] and 7.76 in test [1].

Turning to `O[C@H]1CCN(Cc2ccc(F)cc2)C[C@@H]1N1C2CCC1CC(c1ccccc1)C2` (stereo partly drawn) [(3S,4S)-1-(4-Fluoro-benzyl)-3-(3-phenyl-8-aza-bicyclo[3.2.1]oct-8-yl)-piperidin-4-ol], the figures for the pKi in test [2] and in test [1] were 6.49 and 6.62, respectively.

Regarding `O[C@@H]1CCN(Cc2ccc(F)cc2)C[C@H]1N1CCC2(CCc3ccccc32)CC1` [1-(4-fluorobenzyl)-3-spiro[2,3-dihydro-1H-indene-1,4'-(hexahydropyridine)]-1-yl-(3R,4R)-hexahydro-4-pyridinol], the values for the pKi in test [2] and in test [1] were 9.44 and 7.60, respectively.

Consider `OC(CN1C2CCC1CC(c1ccccc1)C2)c1c(Cl)cccc1Cl` (stereo not given) [1-(2,6-Dichloro-phenyl)-2-(3-phenyl-8-aza-bicyclo[3.2.1]oct-8-yl)-ethanol], for which the pKi in test [1] is 6.52.

`OC(CCCN1C2CCC1CC(c1ccccc1)C2)c1ccc(F)cc1` (stereo not given) [1-(4-Fluoro-phenyl)-4-(3-phenyl-8-aza-bicyclo[3.2.1]oct-8-yl)-butan-1-ol] gave a pKi in test [2] of 6.42.

In the case of `O[C@H]1CCCC[C@@H]1N1C2CCC1CC(c1ccccc1)C2` (stereo partly drawn) [(1S,2S)-2-(3-Phenyl-8-aza-bicyclo[3.2.1]oct-8-yl)-cyclohexanol], the pKi in test [1] was 6.42.

In turn, `O[C@H](Cc1ccc(Br)cc1)CN1CCC2(CCc3ccccc32)CC1` [(2R)-1-(4-bromophenyl)-3-{2,3-dihydrospiro[indene-1,4'-piperidine]-1'-yl}propan-2-ol] showed a pKi in test [2] of 7.07.

With `CN1CC2(CCN([C@@H]3CCCC[C@H]3O)CC2)c2ccccc21` [(1R,2R)-2-(1-methyl-1,2-dihydro-1'H-spiro[indole-3,4'-piperidin]-1'-yl)cyclohexanol], the pKi is 7.13 in test [2] and 6.54 in test [1].

In the case of `OC(Cc1ccc(Br)cc1)CN1C2CCC1CC(c1ccccc1)C2` (stereo not given) [1-(4-Bromo-phenyl)-3-(3-phenyl-8-aza-bicyclo[3.2.1]oct-8-yl)-propan-2-ol], in test [1], the pKi was 7.51.

In turn, `O=C(CCCN1CCC2(CCc3ccccc32)CC1)c1ccc(F)cc1` [1-(4-fluorophenyl)-4-spiro[2,3-dihydro-1H-indene-1,4'-(hexahydropyridine)]-1-yl-1-butanone] showed a pKi in test [1] of 8.74.

Regarding `OC(CN1C2CCC1CC(c1ccccc1)C2)c1ccccc1Br` (stereo not given) [1-(2-Bromo-phenyl)-2-(3-phenyl-8-aza-bicyclo[3.2.1]oct-8-yl)-ethanol], the pKi in test [2] is 6.89; in test [3], 7.02.

`OC(CN1C2CCC1CC(c1ccccc1)C2)c1ccccc1` (stereo not given) [1-Phenyl-2-(3-phenyl-8-aza-bicyclo[3.2.1]oct-8-yl)-ethanol] gave a pKi in test [2] of 6.32.

Regarding `O[C@H]1Cc2ccccc2C[C@@H]1N1C2CCC1CC(c1ccccc1)C2` (stereo partly drawn) [(2S,3S)-3-(3-Phenyl-8-aza-bicyclo[3.2.1]oct-8-yl)-1,2,3,4-tetrahydro-naphthalen-2-ol], the values for the pKi in test [2] and in test [1] were 8.07 and 6.76, respectively.

Consider `CN1CC2(CCN(CCCC(=O)c3ccc(F)cc3)CC2)c2ccccc21` [1-(4-fluorophenyl)-4-[1-methylspiro[2,3-dihydro-1H-indole-3,4'-(hexahydropyridine)]-1-yl]-1-butanone], for which the pKi in test [1] was 6.96.

Take `O[C@@H](CN1CCC2(CCc3ccccc32)CC1)c1cccc(Br)c1` [(1R)-1-(3-bromophenyl)-2-(2,3-dihydro-1'H-spiro[indene-1,4'-piperidin]-1'-yl)ethanol]: the pKi in test [2] was 6.22; in test [1] it was 6.97.

Regarding `CN1CC2(CCN([C@@H]3CN(Cc4cccc(I)c4)CC[C@H]3O)CC2)c2ccccc21` [1-(3-Iodobenzyl)-3-[1-methylspiro[2,3-dihydro-1H-indole-3,4'-(hexahydropyridine)]-1-yl]-(3R,4R)-hexahydro-4-pyridinol], the figures for the pKi in test [2] and in test [1] were 7.77 and 6.91, respectively.

In test [1], `O[C@H]1CCN(Cc2cccc(I)c2)C[C@@H]1N1C2CCC1CC(c1ccccc1)C2` (stereo partly drawn) [(3S,4S)-1-(3-Iodo-benzyl)-3-(3-phenyl-8-aza-bicyclo[3.2.1]oct-8-yl)-piperidin-4-ol] showed a pKi of 6.71.

In the case of `OC(CN1C2CCC1CC(c1ccccc1)C2)c1ccc(Cl)c(Cl)c1` (stereo not given) [1-(3,4-Dichloro-phenyl)-2-(3-phenyl-8-aza-bicyclo[3.2.1]oct-8-yl)-ethanol], the pKi in test [2] is 7.22; in test [1], 6.60.

With `O=C(CN1C2CCC1CC(c1ccccc1)C2)c1ccc(F)cc1` (stereo not given) [1-(4-Fluoro-phenyl)-2-(3-phenyl-8-aza-bicyclo[3.2.1]oct-8-yl)-ethanone], the pKi in test [2] is 5.47; in test [1], 6.55.

In turn, `OC(CN1CCC(c2ccccc2)CC1)c1ccc(Br)cc1` (stereo not given) [1-(4-Bromo-phenyl)-2-(4-phenyl-piperidin-1-yl)-ethanol] showed a pKi in test [2] of 7.52.

Compound `OC(CN1C2CCC1CC(c1ccccc1)C2)c1cccc(Br)c1` (stereo not given) [1-(3-Bromo-phenyl)-2-(3-phenyl-8-aza-bicyclo[3.2.1]oct-8-yl)-ethanol] gave a pKi in test [1] of 6.93.

With `O[C@@H]1Cc2ccccc2C[C@H]1N1CCC2(CCc3ccccc32)CC1` [3-spiro[2,3-dihydro-1H-indene-1,4'-(hexahydropyridine)]-1-yl-(2R,3R)-1,2,3,4-tetrahydro-2-naphthalenol], the pKi in test [2] is 9.44.

With `CN1CC2(CCN(C[C@H](O)c3cccc(Br)c3)CC2)c2ccccc21` [(1R)-1-(3-bromophenyl)-2-(1-methyl-1,2-dihydro-1'H-spiro[indole-3,4'-piperidin]-1'-yl)ethanol], the pKi in test [2] is 6.74; in test [1] it was 6.29.

Take `CN1CC2(CCN(C[C@H](O)Cc3ccc(Br)cc3)CC2)c2ccccc21` [(2R)-1-(4-bromophenyl)-3-{1-methyl-1,2-dihydrospiro[indole-3,4'-piperidine]-1'-yl}propan-2-ol]: the results for the pKi in test [2] and in test [1] were 6.38 and 6.72, respectively.

The compound `O[C@@H]1CCN(Cc2cccc(I)c2)C[C@H]1N1CCC2(CCc3ccccc32)CC1` [1-(3-iodobenzyl)-3-spiro[2,3-dihydro-1H-indene-1,4'-(hexahydropyridine)]-1-yl-(3R,4R)-hexahydro-4-pyridinol] had a pKi in test [1] of 6.55.

In the case of `O[C@@H]1CCCC[C@H]1N1CCC2(CCc3ccccc32)CC1` [(1R,2R)-2-(2,3-dihydro-1'H-spiro[indene-1,4'-piperidin]-1'-yl)cyclohexanol], the values for the pKi in test [2] and in test [1] were 8.12 and 7.68, respectively.
